According to patent US11459315B2, “Modulators of methyl modifying enzymes, compositions and uses thereof” (Constellation Pharmaceuticals, Inc., priority 2017, dated 2022):
Like-named read-outs stand apart in the source and are kept apart here.

Columns and labels:
[1] = target: PRC2 containing wt EZH2 (Homo sapiens (Human), UniProt Q15910); assay: EZH2 biochemical assay (IC50), 3H-SAM incorporation into biotinylated H3 peptide; conditions: 30 pM PRC2 containing wt EZH2, 3-5 h pre-incubation
Outline: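 Activity was measured as ³H-methyl transfer to a biotinylated H3K27me1 peptide over 18-22 h at room temperature, with capture on streptavidin flash plates. The 30 pM wt-EZH2 PRC2 complex was first pre-incubated 3-5 h with compound, 450 nM SAM/450 nM ³H-SAM and 2 µM H3K27me3 activator (pH 8.5, 0.8% DMSO). Four-parameter fits gave IC50.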

[2] = test system: H3K27me3 mark in HeLa cells (EZH2); assay: H3K27me3 Alpha Hela Assay (AlphaLISA); assay type: cell-based; conditions: Homo sapiens, HeLa, 72 h, HeLa cells, 72 hrs; read-out: EZH2 Cell H3K27me3 Alpha HeLa (EC50 K27me3)
Outline: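 HeLa cells (1,000/well) treated with ten 3-fold compound doses for 72 h at 37 °C; lysates extracted and H3K27me3 detected by AlphaLISA with anti-K27me3 acceptor beads, biotinylated anti-H3 (3 nM) and streptavidin donor beads. EC50 from DMSO-normalized dose-response curves; duplicate plate assessed viability.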

Chain of PRC2 containing wt EZH2 (Q15910 whole entry): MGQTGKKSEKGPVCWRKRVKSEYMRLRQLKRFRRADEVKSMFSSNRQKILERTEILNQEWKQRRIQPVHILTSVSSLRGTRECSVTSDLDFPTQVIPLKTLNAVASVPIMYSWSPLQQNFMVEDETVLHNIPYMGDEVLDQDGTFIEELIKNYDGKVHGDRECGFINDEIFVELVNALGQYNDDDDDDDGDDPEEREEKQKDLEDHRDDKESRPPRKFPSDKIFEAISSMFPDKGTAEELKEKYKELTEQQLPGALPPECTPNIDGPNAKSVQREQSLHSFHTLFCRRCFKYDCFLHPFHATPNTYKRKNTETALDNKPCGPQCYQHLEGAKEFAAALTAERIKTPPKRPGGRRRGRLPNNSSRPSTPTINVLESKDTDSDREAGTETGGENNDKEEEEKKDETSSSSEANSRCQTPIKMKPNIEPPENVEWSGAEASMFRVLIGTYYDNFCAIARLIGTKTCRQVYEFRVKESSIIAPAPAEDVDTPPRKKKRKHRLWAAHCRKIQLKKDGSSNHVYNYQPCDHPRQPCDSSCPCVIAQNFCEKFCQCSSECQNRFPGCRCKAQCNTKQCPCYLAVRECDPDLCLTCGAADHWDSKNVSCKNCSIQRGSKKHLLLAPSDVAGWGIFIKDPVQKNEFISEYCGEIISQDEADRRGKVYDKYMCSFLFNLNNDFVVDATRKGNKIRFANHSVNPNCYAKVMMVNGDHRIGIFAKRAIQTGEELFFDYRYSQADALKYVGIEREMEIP
Chain of PRC2 containing wt EZH2 (O75530 whole entry partner): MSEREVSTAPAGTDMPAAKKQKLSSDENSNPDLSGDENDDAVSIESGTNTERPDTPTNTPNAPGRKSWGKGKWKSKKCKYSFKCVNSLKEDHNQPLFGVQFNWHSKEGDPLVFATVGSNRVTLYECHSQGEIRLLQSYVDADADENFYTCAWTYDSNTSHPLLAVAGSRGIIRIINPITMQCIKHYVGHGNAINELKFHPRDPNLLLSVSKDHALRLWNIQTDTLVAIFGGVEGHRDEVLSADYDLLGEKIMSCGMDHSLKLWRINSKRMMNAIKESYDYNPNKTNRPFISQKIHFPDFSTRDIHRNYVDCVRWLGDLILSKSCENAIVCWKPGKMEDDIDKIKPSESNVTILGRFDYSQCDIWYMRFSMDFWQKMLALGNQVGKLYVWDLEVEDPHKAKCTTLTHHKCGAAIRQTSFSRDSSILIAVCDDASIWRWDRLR
Chain of PRC2 containing wt EZH2 (Q15022 whole entry partner): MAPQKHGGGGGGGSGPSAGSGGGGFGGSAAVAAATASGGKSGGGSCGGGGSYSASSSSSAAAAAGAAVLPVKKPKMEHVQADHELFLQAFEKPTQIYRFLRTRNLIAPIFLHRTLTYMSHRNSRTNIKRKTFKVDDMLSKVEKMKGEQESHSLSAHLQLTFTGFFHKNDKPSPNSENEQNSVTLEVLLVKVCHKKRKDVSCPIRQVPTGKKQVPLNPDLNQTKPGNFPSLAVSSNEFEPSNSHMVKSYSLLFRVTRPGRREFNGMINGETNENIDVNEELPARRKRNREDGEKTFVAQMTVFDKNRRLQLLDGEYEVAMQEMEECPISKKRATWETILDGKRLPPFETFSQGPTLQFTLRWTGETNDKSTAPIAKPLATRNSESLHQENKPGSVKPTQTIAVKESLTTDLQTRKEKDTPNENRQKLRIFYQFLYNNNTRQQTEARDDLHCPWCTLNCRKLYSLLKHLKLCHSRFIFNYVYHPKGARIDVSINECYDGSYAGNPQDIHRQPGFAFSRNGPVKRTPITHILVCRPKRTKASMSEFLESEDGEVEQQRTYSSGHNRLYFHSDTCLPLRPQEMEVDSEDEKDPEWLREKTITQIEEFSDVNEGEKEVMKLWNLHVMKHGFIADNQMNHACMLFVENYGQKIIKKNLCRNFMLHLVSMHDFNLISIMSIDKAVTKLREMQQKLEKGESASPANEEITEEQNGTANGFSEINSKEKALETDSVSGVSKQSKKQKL
Chain of PRC2 containing wt EZH2 (Q09028 whole entry partner): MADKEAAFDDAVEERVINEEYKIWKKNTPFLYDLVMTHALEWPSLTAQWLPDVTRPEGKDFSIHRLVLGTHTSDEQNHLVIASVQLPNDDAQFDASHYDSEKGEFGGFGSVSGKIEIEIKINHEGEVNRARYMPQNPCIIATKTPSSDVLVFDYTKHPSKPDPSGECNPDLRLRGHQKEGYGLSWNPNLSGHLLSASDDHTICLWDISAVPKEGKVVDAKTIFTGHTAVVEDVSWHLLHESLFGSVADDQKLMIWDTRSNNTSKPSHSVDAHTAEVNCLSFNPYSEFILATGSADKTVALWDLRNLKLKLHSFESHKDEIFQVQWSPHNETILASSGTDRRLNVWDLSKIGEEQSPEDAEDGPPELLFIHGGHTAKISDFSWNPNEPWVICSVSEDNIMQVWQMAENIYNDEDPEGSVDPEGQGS
Chain of PRC2 containing wt EZH2 (Q6ZN18 whole entry partner): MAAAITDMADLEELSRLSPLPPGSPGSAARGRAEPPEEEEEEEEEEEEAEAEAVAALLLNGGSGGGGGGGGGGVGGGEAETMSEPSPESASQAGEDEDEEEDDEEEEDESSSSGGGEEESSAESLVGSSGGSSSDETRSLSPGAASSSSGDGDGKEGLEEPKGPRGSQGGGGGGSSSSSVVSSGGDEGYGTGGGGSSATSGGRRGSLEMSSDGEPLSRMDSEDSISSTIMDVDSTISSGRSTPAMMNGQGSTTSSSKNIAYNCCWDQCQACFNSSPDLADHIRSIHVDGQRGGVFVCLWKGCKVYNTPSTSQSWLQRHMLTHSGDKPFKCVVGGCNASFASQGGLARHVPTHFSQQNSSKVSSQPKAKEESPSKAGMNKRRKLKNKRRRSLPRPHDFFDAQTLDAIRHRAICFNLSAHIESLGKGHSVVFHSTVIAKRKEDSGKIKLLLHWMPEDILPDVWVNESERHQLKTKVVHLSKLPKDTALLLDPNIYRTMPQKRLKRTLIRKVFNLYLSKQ

SMILES	IC50 ([1]; read-out: EZH2 (IC50))	EC50 [2]	IC50 ([1]; EZH2 (IC50))
CSc1cc(C)[nH]c(=O)c1CNC(=O)c1c(C)n([C@H](C)C2CCC(N3CC(OC4CC4)C3)CC2)c2ncc(Cl)cc12 (stereo partly drawn) [Example 124, 5-chloro-1-((R)-1-(4-(3-cyclopropoxyazetidin-1-yl)cyclohexyl)ethyl)-2-methyl-N-((6-methyl-4-(methylthio)-2-oxo-1,2-dihydropyridin-3-yl)methyl)-1H-pyrrolo[2,3-b]pyridine-3-carboxamide]	< 0.0005 µM	< 0.01 µM	–
CSc1cc(C)[nH]c(=O)c1CNC(=O)c1c(C)n([C@H](C)C2CCN(C3CC(F)(F)C3)CC2)c2ccccc12 [Example 81, (R)-1-(1-(1-(3,3-difluorocyclobutyl)piperidin-4-yl)ethyl)-2-methyl-N-((6-methyl-4-(methylthio)-2-oxo-1,2-dihydropyridin-3-yl)methyl)-1H-indole-3-carboxamide]	–	0.01 to 0.1 µM	< 0.0005 µM
CSc1cc(C)[nH]c(=O)c1CNC(=O)c1c(C)n([C@H](C)C2CCC(OC(=O)C(C)C)CC2)c2ccccc12 (single isomer, unassigned) [144 (isomer 1)]	< 0.0005 µM	< 0.01 µM	–
CSc1cc(C)[nH]c(=O)c1CNC(=O)c1c(C)n([C@H](C)C2CCN(C#N)CC2)c2ccccc12 [Example 39, (R)-1-(1-(1-cyanopiperidin-4-yl)ethyl)-2-methyl-N-((6-methyl-4-(methylthio)-2-oxo-1,2-dihydropyridin-3-yl)methyl)-1H-indole-3-carboxamide]	–	0.01 to 0.1 µM	< 0.0005 µM
CSc1cc(C)[nH]c(=O)c1CNC(=O)c1c(C)n([C@H](C)[C@H]2CCN(C)C[C@@H]2F)c2ccccc12 [Example 42, 1-((R)-1-((3R,4R)-3-fluoro-1-methylpiperidin-4-yl)ethyl)-2-methyl-N-((6-methyl-4-(methylthio)-2-oxo-1,2-dihydropyridin-3-yl)methyl)-1H-indole-3-carboxamide]	–	< 0.01 µM	< 0.0005 µM
CSc1cc(C)[nH]c(=O)c1CNC(=O)c1c(C)n([C@H](C)C2CCC(N3CC(OC4CC4)C3)CC2)c2ncncc12 (single isomer, unassigned) [102 (isomer 1)]	< 0.0005 µM	< 0.01 µM	–
CSc1cc(C)[nH]c(=O)c1CNC(=O)c1c(C)n([C@H](C)C2CCN(C3CC3)CC2)c2cc(F)ccc12 [Example 57, (R)-1-(1-(1-cyclopropylpiperidin-4-yl)ethyl)-6-fluoro-2-methyl-N-((6-methyl-4-(methylthio)-2-oxo-1,2-dihydropyridin-3-yl)methyl)-1H-indole-3-carboxamide]	–	< 0.01 µM	< 0.0005 µM
CSc1cc(C)[nH]c(=O)c1CNC(=O)c1c(C)n([C@H](C)C2COC2)c2ccccc12 (single isomer, unassigned) [14 (isomer 1)]	–	0.01 to 0.1 µM	< 0.0005 µM
CSc1cc(C)[nH]c(=O)c1CNC(=O)c1c(C)n([C@H](C)C2CCC(N3CC(C(F)(F)F)C3)CC2)c2ncccc12 (stereo partly drawn) [Example 110, 2-methyl-N-((6-methyl-4-(methylthio)-2-oxo-1,2-dihydropyridin-3-yl)methyl)-1-((R)-1-(4-(3-(trifluoromethyl)azetidin-1-yl)cyclohexyl)ethyl)-1H-pyrrolo[2,3-b]pyridine-3-carboxamide]	< 0.0005 µM	0.01 to 0.1 µM	–
CSc1cc(C)[nH]c(=O)c1CNC(=O)c1c(C)n([C@H](C)[C@H]2CC[C@H](NC3(C)COC3)CC2)c2ccccc12 (single isomer, unassigned) [1 (isomer 1)]	< 0.0005 µM	< 0.01 µM	–
CSc1cc(C)[nH]c(=O)c1CNC(=O)c1c(C)n([C@H](C)C2CN(CC(F)(F)F)C2)c2ccccc12 [Example 54, (R)-2-methyl-N-((6-methyl-4-(methylthio)-2-oxo-1,2-dihydropyridin-3-yl)methyl)-1-(1-(1-(2,2,2-trifluoroethyl)azetidin-3-yl)ethyl)-1H-indole-3-carboxamide]	–	0.01 to 0.1 µM	0.0005 to 0.005 µM
CSc1cc(C)[nH]c(=O)c1CNC(=O)c1c(C)n([C@@H](C)C2COC2)c2ccccc12 (single isomer, unassigned) [14 (isomer 2)]	–	> 0.1 µM	> 0.005 µM
